Assay results reported in the supplement of paper PMC9334596.
Structures can show the parent of a compound that is named as a salt.

Test system: mPer2Luc MEF
Test: PER2::LUC luminescence relative to vehicle control (fold of vehicle); higher = higher PER2::LUC reporter signal
Outline: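 In embryonic fibroblasts from PER2::LUC knock-in reporter mice grown in DMEM with 10% FBS at 37 °C and 5% CO2, compounds were applied at six threefold-spaced concentrations from 10 μM down to 0.04 μM. Readings were taken 24 h and 30 h after compound addition. Reported values are PER2::LUC luminescence as fold of vehicle-treated wells.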

[1] = time after treatment: 24-hour, concentration: 0.04μM
[2] = time after treatment: 24-hour, concentration: 0.37μM
[3] = time after treatment: 24-hour, concentration: 3.33μM
[4] = time after treatment: 24-hour, concentration: 10μM
[5] = time after treatment: 30-hour, concentration: 0.04μM
[6] = time after treatment: 30-hour, concentration: 0.37μM
[7] = time after treatment: 30-hour, concentration: 3.33μM
[8] = time after treatment: 30-hour, concentration: 10μM

Structure (SMILES): COc1cc(NS(C)(=O)=O)ccc1Nc1c2ccccc2nc2ccccc12 [Amsacrine]
- PER2::LUC luminescence [1]: 0.726
- PER2::LUC luminescence [2]: 0.768
- PER2::LUC luminescence [3]: 0.663
- PER2::LUC luminescence [4]: 0.603
- PER2::LUC luminescence [5]: 0.43
- PER2::LUC luminescence [6]: 0.474
- PER2::LUC luminescence [7]: 0.379
- PER2::LUC luminescence [8]: 0.285

Structure (SMILES): Cn1cc(/C=C/C(=O)c2cccc(F)c2)cc1/C=C/C(=O)NO [MC1568]
- PER2::LUC luminescence [1]: 0.933
- PER2::LUC luminescence [2]: 0.956
- PER2::LUC luminescence [3]: 0.979
- PER2::LUC luminescence [4]: 1.34
- PER2::LUC luminescence [5]: 0.907
- PER2::LUC luminescence [6]: 0.894
- PER2::LUC luminescence [7]: 0.843
- PER2::LUC luminescence [8]: 1.04

Structure (SMILES): NCC(=O)N1C[C@H](NC(=O)c2ccccc2)C[C@H]1C(=O)O [GAP-134 (Hydrochloride)]
- PER2::LUC luminescence [1]: 0.994
- PER2::LUC luminescence [2]: 0.988
- PER2::LUC luminescence [3]: 1.05
- PER2::LUC luminescence [4]: 1.04
- PER2::LUC luminescence [5]: 1.04
- PER2::LUC luminescence [6]: 1.04
- PER2::LUC luminescence [7]: 1.06
- PER2::LUC luminescence [8]: 1.02

Structure (SMILES): CC(C)c1onc(-c2c(Cl)cccc2Cl)c1COc1ccc(/C=C/c2cccc(C(=O)O)c2)c(Cl)c1 [GW4064]
- PER2::LUC luminescence [1]: 1.04
- PER2::LUC luminescence [2]: 1.08
- PER2::LUC luminescence [3]: 1.24
- PER2::LUC luminescence [4]: 1.88
- PER2::LUC luminescence [5]: 1.08
- PER2::LUC luminescence [6]: 1.1
- PER2::LUC luminescence [7]: 1.32
- PER2::LUC luminescence [8]: 2.19
